The values below are quoted from earlier work in patent US5972375A, “Polyvinyl alcohol compositions prepared by crosslinking in a freezing step” (Implico BV, priority 1992, dated 1999).

Like-named read-outs stand apart in the source and are kept apart here.

The test system of data set [1] is Rat.
Data set [2] has as its system Rat. This is another data set of the same source.

Turning to `CN1CCCC1=O` [N-Methylpyrrolidone], the “Oral absorption LD50” value in the data set on Rat [1] (oral) is 4200 mg/kg.
Take `CCO` [Ethanol]: the “Oral absorption LD50” value in the data set on Rat [1] (in vivo, po) is 7100 mg/kg.
In the case of `C[S+](C)[O-]` [DMSO, dimethyl sulphoxide], the figures for the “Intravenous route LD50” value with Primate (intravenous), with Rat [2] (intravenous) and with Dog (intravenous) were 4 g/kg of Body weight, 5.4 g/kg of Body weight and 2.5 g/kg of Body weight, respectively. In addition, the “Oral route LD50” value in the data set on Primate (oral) is > 4 g/kg of Body weight; in the data set with Dog (oral) it was > 10 g/kg of Body weight. Moreover, the “Percutaneous route LD50” value in the data set on Primate (percutaneous) is > 11 g/kg of Body weight; in the data set with Rat [2] (percutaneous (undiluted)), 40 g/kg of Body weight; in the data set on Dog (percutaneous), > 11 g/kg of Body weight; with Mouse, 50 g/kg of Body weight. Moreover, the “Oral absorption LD50” value in the data set with Rat [1] (oral) was 19700 mg/kg. For the same molecule, the “Inhalation, non-lethal at” value with Rat [2] (24 hr) was 2900 mg/m^3; in the data set on Rat [2] (40 hr), 2000 mg/m^3.
As for `CN(C)C=O` [DMS, Dimethylformamide], in the data set with Rat [1] (oral), the “Oral absorption LD50” value is 2800 mg/kg.
With `OCC(O)CO` [Glycerol], in the data set on Rat [1] (in vivo, po), the “Oral absorption LD50” value was 12600 mg/kg.
For the molecule `CC(C)=O` [Acetone], the “Oral absorption LD50” value with Rat [1] (oral) was 9800 mg/kg.
